Test results: PMC4640093, “Lipophilic prodrugs of nucleoside triphosphates as biochemical probes and potential antivirals” (Nature Communications, 2015)

Tests used:
[1] = Chemical hydrolysis in PBS, pH 7.3; format: physicochemical; settings: PBS pH 7.3, 37 °C; for t1/2(1) PBS, pH=7.3: removal of first masking unit (half-lives of 3); for t1/2(2) PBS, pH=7.3: second hydrolysis step, half-lives of intermediate 4 to give d4TTP 19
Procedure: Stock solutions (50 mM in DMSO-d6) of the appropriate compounds were prepared. After dilution of 11 μl with 100 μl Millipore water and 189 μl DMSO-d6 to 1.9 mM hydrolysis solutions the reaction was started by the addition of 300 μl PBS (50 mM, pH 7.3). The solution was incubated at 37 °C in a thermomixer. An initial aliquot (25 μl) was taken directly and analysed by analytical HPLC at 265–266 nm. Further aliquots were taken for monitoring the kinetic hydrolysis. The exponential decay curves (pseudo-first order) based on absolute integral values were calculated with commercially available software (OriginPro 9.0G) and yielded the half-lives t1/2(1) and t1/2(2) of the prodrugs via one determination.

HIV-2(ROD) [2] = assay: Anti-HIV activity assay, HIV-2 in wild-type CEM/0 cells; format: cell-based; settings: wild-type CEM cells, HIV-induced giant cell formation; mean±s.d., n=2–3; read-out: EC50 CEM HIV-2
Procedure: (§1) Inhibition of HIV-1(IIIB)- and HIV-2(ROD)-induced cytopathicity in wild-type CEM/0 and TK-deficient CEM/TK^− cell cultures was measured in microtitre 96-well plates containing ∼3 × 10^5 CEM cells ml^−1 infected with 100 CCID50 of HIV per millilitre and containing appropriate dilutions of the test compounds. After 4−5 days of incubation at 37 °C in a CO2-controlled humidified atmosphere, CEM giant (syncytium) cell formation was examined microscopically. The EC50 (50% effective concentration) was defined as the compound concentration required to inhibit HIV-induced giant cell formation by 50%.

CD4+ T-cell (CEM) = assay: Cytotoxicity: inhibition of CEM cell proliferation; format: cell-based, human; settings: 50% cytostatic concentration, mean±s.d., n=2–3
pig liver esterase (PLE) = assay: Enzymatic hydrolysis with pig liver esterase (PLE) in PBS; format: in vitro ADME; settings: PLE in PBS pH 7.3, 37 °C; for t1/2(1) PLE: removal of first masking unit (half-lives of 3); for t1/2(2) PLE: second hydrolysis step, half-lives of intermediate 4
Procedure: Furthermore, 140 μl of the 6.0 mM solution was diluted with 105 μl DMSO-d6 and 700 μl 50 mM PBS buffer. The reaction was started by addition of 52.5 μl of PLE in PBS buffer (3 mg ml^−1) and the mixture was incubated at 37 °C in a thermomixer. At different times, aliquots (125 μl) were taken and treated as follows: (a) for 3a–g,l,m and 4a,e the reaction was stopped by addition to 132.5 μl MeOH. […] (b) For 3h,i,k,n and 4j, the sample was directly frozen in liquid nitrogen.

HIV-1(IIIB) = assay: Anti-HIV activity assay, HIV-1 in wild-type CEM/0 cells; format: cell-based; settings: HIV-induced giant cell formation, mean±s.d., n=2–3
Procedure: as §1

HIV-2(ROD) [3] = assay: Anti-HIV activity assay, HIV-2 in TK-deficient CEM/TK− cells; format: cell-based; settings: thymidine kinase-deficient CEM/TK− cells; mean±s.d., n=2–3
Procedure: as §1

[4] = Enzyme-catalysed hydrolysis in CEM cell extracts; settings: for t1/2(1) CEM: human CEM cell extract, 37 °C
Procedure: The hydrolysis mixtures were analysed by means of analytical RP-18-HPLC.
A volume of 10 μl of the appropriate 50 mM DMSO-d6 stock solution was diluted to 6.0 mM hydrolysis solution by addition of 73.3 μl DMSO-d6. Seven different samples including 10 μl water and 10 μl hydrolysis solution were prepared. The reaction was started by addition of 50 μl human CEM cell extract and the mixture was incubated at 37 °C for different time periods of hydrolysis. The work-up depended on the particular compound: (a) for 3a–f,l,m,p and 4a,e the reactions were stopped by addition of 150 μl MeOH. The solution was kept on ice for 5 min followed by centrifugation for 5 min (13,000 r.p.m.). The supernatants were filtered (Chromafil RC-20/15 MS, 0.2 μm) and stored in liquid nitrogen. (b) For 3g–i,k,n and 4j, the samples were directly frozen in liquid nitrogen. The solution was defrosted followed by ultrasonication for 10 min. After centrifugation for 5 min the supernatants were filtered (Chromafil AO-20/3, 0.2 μm) and stored at −196 °C. (c) For 3j the mixture was diluted with 70 μl THF (HPLC grade) and frozen in liquid nitrogen followed by defrosting, ultrasonication, centrifugation, filtration and stored as described for (b). Samples were defrosted and 50–80 μl were subjected to HPLC analysis.
Human CD4^+ T-lymphocyte CEM cells were grown in RPMI-1640-based cell culture medium to a final density of ∼3·10^6 cells ml^−1. Then, cells were centrifuged for 10 min at 1,250 r.p.m. at 4 °C, washed twice with cold PBS and the pellet was resuspended at 10^8 cells ml^−1 and sonicated (Hielscher Ultrasound Techn., 100% amplitude, three·times for 10 s) to destroy cell integrity. The resulting cell suspension was then centrifuged at 10,000 r.p.m. to remove cell debris, and the supernatant divided into aliquots before being frozen at −80 °C and used.

t1/2(1) PBS, pH=7.3 [1] [h]	t1/2(2) PBS, pH=7.3 [1] [h]	EC50 (HIV-2(ROD) [2]) [nM]	t1/2(1) PLE (pig liver esterase (PLE)) [h]	t1/2(2) PLE (pig liver esterase (PLE)) [h]	EC50 (HIV-1(IIIB)) [nM]	EC50 (HIV-2(ROD) [3]) [nM]	t1/2(1) CEM [4] [h]	Compound	CC50 (CD4+ T-cell (CEM)) [nM]	t1/2 in cell extracts ([4]; degradation of the nucleotide in CEM cell extracts) [h]
26	350	940 ± 160	0.013	1.6	360 ± 60	10000	0.98	CCCCCCC(=O)Oc1ccc(COP(=O)(OCc2ccc(OC(=O)CCCCCC)cc2)OP(=O)(O)OP(=O)(O)OC[C@@H]2C=C[C@H](n3cc(C)c(=O)[nH]c3=O)O2)cc1 [3d, γ-Bis-(4-heptanoyloxybenzyl)-d4TTP]	74000 ± 2000	–
44	350	330 ± 30	0.082	3.0	250 ± 70	500 ± 140	2.8	CCCCCCCCCC(=O)Oc1ccc(COP(=O)(OCc2ccc(OC(=O)CCCCCCCCC)cc2)OP(=O)(O)OP(=O)(O)OC[C@@H]2C=C[C@H](n3cc(C)c(=O)[nH]c3=O)O2)cc1 [3f, γ-Bis-(4-decanoyloxybenzyl)-d4TTP]	34000 ± 5000	–
68	410	270 ± 60	0.95	8.3	210 ± 10	720 ± 160	2.2	CCCCCCCCCCCC(=O)Oc1ccc(COP(=O)(OCc2ccc(OC(=O)CCCCCCCCCCC)cc2)OP(=O)(O)OP(=O)(O)OC[C@@H]2C=C[C@H](n3cc(C)c(=O)[nH]c3=O)O2)cc1 [3g, γ-Bis-(4-dodecanoyloxybenzyl)-d4TTP]	26000	–
90	355	1100 ± 230	30	–	500 ± 140	1630 ± 520	4.6	CCCCCCCCCCCCCC(=O)Oc1ccc(COP(=O)(OCc2ccc(OC(=O)CCCCCCCCCCCCC)cc2)OP(=O)(O)OP(=O)(O)OC[C@@H]2C=C[C@H](n3cc(C)c(=O)[nH]c3=O)O2)cc1 [3h, γ-Bis-(4-tetradecanoyloxybenzyl)-d4TTP]	28000 ± 7000	–
73	462	660 ± 80	33	–	620 ± 300	720 ± 160	5.3	CCCCCCCCCCCCCCCC(=O)Oc1ccc(COP(=O)(OCc2ccc(OC(=O)CCCCCCCCCCCCCCC)cc2)OP(=O)(O)OP(=O)(O)OC[C@@H]2C=C[C@H](n3cc(C)c(=O)[nH]c3=O)O2)cc1 [3i, γ-Bis-(4-hexadecanoyloxybenzyl)-d4TTP]	61000 ± 3000	–

More lines, now with the values behind:

Compound	t1/2(1) PBS, pH=7.3 [1] [h]	t1/2(2) PBS, pH=7.3 [1] [h]	EC50 (HIV-2(ROD) [2]) [nM]	t1/2(1) PLE (pig liver esterase (PLE)) [h]	t1/2(2) PLE (pig liver esterase (PLE)) [h]	EC50 (HIV-1(IIIB)) [nM]	EC50 (HIV-2(ROD) [3]) [nM]	t1/2(1) CEM [4] [h]	CC50 (CD4+ T-cell (CEM)) [nM]	t1/2 in cell extracts ([4]; degradation of the nucleotide in CEM cell extracts) [h]
CC(=O)Oc1ccc(COP(=O)(OCc2ccc(OC(C)=O)cc2)OP(=O)(O)OP(=O)(O)OC[C@@H]2C=C[C@H](n3cc(C)c(=O)[nH]c3=O)O2)cc1 [3a, γ-Bis-(4-acetyloxybenzyl)-d4TTP]	18	75	720 ± 160	1.9	71	430 ± 250	> 10000	0.050	63000 ± 2000	–
CCC(=O)Oc1ccc(COP(=O)(OCc2ccc(OC(=O)CC)cc2)OP(=O)(O)OP(=O)(O)OC[C@@H]2C=C[C@H](n3cc(C)c(=O)[nH]c3=O)O2)cc1 [3b, γ-Bis-(4-propanoyloxybenzyl)-d4TTP]	17	150	1160 ± 150	0.42	33	460 ± 210	> 10000	0.12	57000 ± 6000	–
CCCCC(=O)Oc1ccc(COP(=O)(OCc2ccc(OC(=O)CCCC)cc2)OP(=O)(O)OP(=O)(O)OC[C@@H]2C=C[C@H](n3cc(C)c(=O)[nH]c3=O)O2)cc1 [3c, γ-Bis-(4-pentanoyloxybenzyl)-d4TTP]	22	270	1050 ± 300	0.063	7.7	400	> 10000	0.43	58000 ± 3000	–
CCCCOC(=O)N(C)CCN(C)C(=O)Oc1ccc(COP(=O)(OCc2ccc(OC(=O)N(C)CCN(C)C(=O)OCCCC)cc2)OP(=O)(O)OP(=O)(O)OCC2C=CC(n3cc(C)c(=O)[nH]c3=O)O2)cc1 (stereo not drawn) [3o, γ-Bis-(4-(butyl-ethane-1,2-diylbis(methylcarbamate))-oxybenzyl)-d4TTP]	27	–	–	–	–	–	–	–	–	–
CCCCCCCCOC(=O)N(C)CCN(C)C(=O)Oc1ccc(COP(=O)(OCc2ccc(OC(=O)N(C)CCN(C)C(=O)OCCCCCCCC)cc2)OP(=O)(O)OP(=O)(O)OCC2C=CC(n3cc(C)c(=O)[nH]c3=O)O2)cc1 (stereo not drawn) [3p, γ-Bis-(4-(octyl-ethane-1,2-diylbis(methylcarbamate))-oxybenzyl)-d4TTP]	48	–	–	–	–	–	–	5.6	–	–
CCCCCCCCCCCCOC(=O)N(C)CCN(C)C(=O)Oc1ccc(COP(=O)(OCc2ccc(OC(=O)N(C)CCN(C)C(=O)OCCCCCCCCCCCC)cc2)OP(=O)(O)OP(=O)(O)OCC2C=CC(n3cc(C)c(=O)[nH]c3=O)O2)cc1 (stereo not drawn) [3q, γ-Bis-(4-(dodecyl-ethane-1,2-diylbis(methylcarbamate))-oxybenzyl)-d4TTP]	48	–	–	–	–	–	–	–	–	–
CC(=O)Oc1ccc(COP(=O)(O)OP(=O)(O)OP(=O)(O)OC[C@@H]2C=C[C@H](n3cc(C)c(=O)[nH]c3=O)O2)cc1 [4a, γ-Mono-(4-acetyloxybenzyl)-d4TTP]	–	95	–	–	108	–	–	0.040	–	–
CCCCCCCCC(=O)Oc1ccc(COP(=O)(O)OP(=O)(O)OP(=O)(O)OC[C@@H]2C=C[C@H](n3cc(C)c(=O)[nH]c3=O)O2)cc1 [4e, γ-Mono-(4-nonanoyloxybenzyl)-d4TTP]	–	237	–	–	1.5	–	–	1.8	–	–
CCCCCCCCCCCCCCCCCC(=O)Oc1ccc(COP(=O)(O)OP(=O)(O)OP(=O)(O)OC[C@@H]2C=C[C@H](n3cc(C)c(=O)[nH]c3=O)O2)cc1 [4j, γ-Mono-(4-octadecanoyloxybenzyl)-d4TTP]	–	637	–	–	57	–	–	4.6	–	–
Cc1cn([C@H]2C=C[C@@H](COP(=O)(O)OP(=O)(O)OP(=O)(O)O)O2)c(=O)[nH]c1=O [d4TTP 19, reference compound]	–	–	–	–	–	–	–	–	–	0.63
